# Results: patent US9802899B2, “Heterocyclic compounds as pesticides” (BAYER CROPSCIENCE AG, priority 2012, dated 2017)
# Where two headings read alike, the source gives them in different places.
# Legend:
# spider mites = experiment: spider mite test, efficacy in % after 6 days; format: in vivo; conditions: 100% = all spider mites killed, 0% = none killed
# Procedure: After 6 days, the efficacy in % is determined. 100% means that all of the spider mites have been killed; 0% means that none of the spider mites have been killed.
# [1] = Determination of the log P values by HPLC (formic acid method); format: physicochemical; conditions: reversed-phase column (C 18), acidic range (pH 3.4), 55° C.
# Procedure: 1) Description of Method for Determination of the Log P Values (Formic Acid Method)
# Eluents for determination in the acidic range (pH 3.4):
# Eluent A: acetonitrile+1 ml of formic acid/liter. Eluent B: water+0.9 ml of formic acid/liter.
# The lambda max values were determined in the maxima of the chromatographic signals using the UV spectra from 200 nm to 400 nm.
# Lucilia cuprina larvae = experiment: Lucilia cuprina test (LUCICU); format: in vivo; conditions: application rate 100 ppm; larvae on treated horse meat; after 2 days
# Procedure: Lucilia cuprina Test (LUCICU)
# (§1) Solvent: dimethyl sulphoxide
# To produce a suitable preparation of active compound, 10 mg of active compound are mixed with 0.5 ml of dimethyl sulphoxide, and the concentrate is diluted with water to the desired concentration.
# Vessels containing horse meat treated with the active compound preparation of the desired concentration are populated with about 20 Lucilia cuprina larvae.
# After 2 days, the kill in % is determined 100% means that all of the larvae have been killed; 0% means that none of the larvae have been killed.
# Cooperia curticei = Cooperia curticei test (COOPCU); format: in vivo; conditions: for pest or weed control at 20 ppm / pest or weed control at 100 ppm: Cooperia curticei, 120 h, read-out: efficacy (kill)
# Procedure: Cooperia curticei Test (COOPCU)
# as §1
# To produce a suitable preparation of active compound, 10 mg of active compound are mixed with 0.5 ml of dimethyl sulphoxide, and the concentrate is diluted with Ringer solution to the desired concentration.
# Vessels containing the active compound preparation of the desired concentration are populated with about 40 nematode larvae (Cooperia curticei).
# After 5 days, the kill in % is determined 100% means that all of the larvae have been killed; 0% means that none of the larvae have been killed.
# Phaedon cochleariae = Phaedon cochleariae spray test (PHAECO); format: in vivo; conditions: foliar, 168 h, application rate 500 g/ha, larvae on Chinese cabbage leaf discs, after 7 days, read-out: efficacy
# Procedure: Phaedon cochleariae Spray Test (PHAECO)
# Solvents: 78.0 parts by weight of acetone • • 1.5 parts by weight of dimethylformamide
# (§2) Emulsifier: 0.5 part by weight of alkylaryl polyglycol ether
# (§3) To produce a suitable preparation of active compound, 1 part by weight of active compound is mixed with the stated amounts of solvents and emulsifier, and the concentrate is diluted with emulsifier-containing water to the desired concentration.
# After 7 days, the efficacy in % is determined. 100% means that all of the beetle larvae have been killed; 0% means that none of the beetle larvae have been killed.
# Meloidogyne incognita = Meloidogyne incognita test (MELGIN); format: in vivo; conditions: Meloidogyne incognita, 336 h; application rate 20 ppm; lettuce in sand; after 14 days; read-out: nematicidal effect (formation of galls)
# Procedure: Meloidogyne incognita Test (MELGIN)
# Solvent: 125.0 parts by weight of acetone
# To prepare a suitable active compound preparation, 1 part by weight of active compound is mixed with the stated amount of solvent and the concentrate is diluted with water to the desired concentration.
# Vessels are filled with sand, active compound solution, an egg/larvae suspension of the root-knot nematode (Meloidogyne incognita) and lettuce seeds. The lettuce seeds germinate and the plants develop. On the roots, galls are formed.
# After 14 days, the nematicidal effect in % is determined by the formation of galls. 100% means that no galls have been found; 0% means that the number of galls on the treated plants corresponds to the untreated control.
# Myzus persicae = Myzus persicae spray test (MYZUPE); format: in vivo; conditions: Chinese cabbage leaf discs, after 6 days
# Procedure: Myzus persicae Spray Test (MYZUPE)
# Solvents: 78 parts by weight of acetone • • 1.5 parts by weight of dimethylformamide
# as §2, §3
# Discs of Chinese cabbage leaves (Brassica pekinensis) infested by all stages of the green peach aphid (Myzus persicae) are sprayed with an active compound preparation of the desired concentration.
# After 6 days, the efficacy in % is determined 100% here means that all of the aphids have been killed; 0% means that no aphids have been killed.
# Boophilus microplus = Boophilus microplus test (DIP); format: in vivo; conditions: application rate 100 ppm, after 7 days by laying of fertile eggs, 100% = no fertile eggs
# Procedure: Boophilus microplus Test (DIP)
# Test animals: adult engorged Boophilus microplus females of the SP-resistant Parkhurst strain
# as §1
# 10 mg of active compound are dissolved in 0.5 ml of dimethyl sulphoxide. For the purpose of preparing a suitable formulation, the active compound solution is diluted with water to the concentration desired in each case.
# This active compound preparation is pipetted into tubes. 8-10 ticks are transferred into a further tube with holes. The tube is immersed into the active compound formulation, and all ticks are completely wetted. After the liquid has run out, the ticks are transferred onto filter discs in plastic dishes and stored in a climate-controlled room.
# The activity is assessed after 7 days by laying of fertile eggs. Eggs whose fertility is not visible from the outside are stored in a climate-controlled cabinet until the larvae hatch. An efficacy of 100% means that none of the ticks has laid any fertile eggs.
# [2] = reversed-phase HPLC column (C 18)
# [3] = application rate 100 ppm, nematode larvae, after 5 days
smiles,measurement,setting,value
O=C(Nc1ccn(-c2ccccc2Cl)n1)c1ccccc1OC(F)(F)F [Compound I-1-18],efficacy in %,spider mites; application rate of 500 g/ha,80%
same,log P,[1],3.28
O=C(Nc1ccn(-c2ccccc2F)n1)c1ccccc1Br [Compound I-1-10],efficacy in %,spider mites; application rate of 500 g/ha,80%
same,log P,[1],2.78
"O=C(Nc1ccn(-c2c(F)cccc2F)c1)c1ccccc1C(F)(F)F [Compound I-3-1, N-[1-(2,6-Difluorophenyl)-1H-pyrrol-3-yl]-2-(trifluoromethyl)benzamide]",chromatographic logP,[1]; [2],2.96
same,efficacy (kill),Lucilia cuprina larvae,80%
same,pest or weed control at 20 ppm,Cooperia curticei,100%
same,pest or weed control at 500 g/ha,Phaedon cochleariae,100%
same,pest or weed control at 20 ppm,Meloidogyne incognita,90%
O=C(Nc1ccn(-c2ncccc2F)n1)c1cccnc1C(F)(F)F [Compound I-1-133],log P,[1],1.83
same,efficacy,Myzus persicae; application rate 500 g/ha,90%
Cc1ncccc1C(=O)Nc1ccn(-c2cc(F)ccc2F)n1 [Compound I-1-69],log P,[1],1.53
same,efficacy (kill),Lucilia cuprina larvae,90%
same,efficacy (kill),Cooperia curticei; [3],80%
Cc1cc(NC(=O)c2cccnc2Br)nn1-c1ccc(F)cc1F [Compound I-1-210],efficacy in %,spider mites; application rate of 500 g/ha,95%
same,log P,[1],2.89
CCOCN(C(=O)c1ccccc1C(F)(F)F)c1ccn(-c2c(F)cccc2F)n1 [Compound I-1-262],efficacy in %,spider mites; application rate of 500 g/ha,95%
same,log P,[1],3.40
O=C(Nc1ccn(-c2c(F)cccc2F)n1)c1ccccc1Br [Compound I-1-82],log P,[1],2.59
same,efficacy (kill),Lucilia cuprina larvae,95%
same,efficacy,Boophilus microplus,80%
"O=C(Nc1ccn(-c2ncc(F)cc2F)n1)c1c(F)cccc1F [Compound I-1-146, N-[1-(3,5-Difluoropyridin-2-yl)-1H-pyrazol-3-yl]-2,6-difluorobenzamide]",chromatographic logP,[1]; [2],2.19
same,pest or weed control at 100 ppm,Cooperia curticei,100%
same,pest or weed control at 20 ppm,Meloidogyne incognita,100%
O=C(Nc1ccn(-c2ncc(Cl)cc2Cl)n1)c1ccccc1C(F)(F)F [Compound I-1-428],efficacy in %,spider mites; application rate of 500 g/ha,95%
same,log P,[1],3.05
O=C(Nc1ccn(-c2ccccc2Cl)n1)c1c(F)cccc1Cl [Compound I-1-37],log P,[1],2.84
same,efficacy (kill),Lucilia cuprina larvae,90%
"CCOc1cccc(F)c1-n1ccc(NC(=O)c2ccccc2Cl)n1 [Compound I-1-117, 2-Chloro-N-[1-(2-ethoxy-6-fluorophenyl)-1H-pyrazol-3-yl]benzamide]",chromatographic logP,[1]; [2],2.84
same,pest or weed control at 500 g/ha,Phaedon cochleariae,100%
same,pest or weed control at 20 ppm,Meloidogyne incognita,100%
O=C(Nc1ccn(-c2ccc(F)cn2)n1)c1c(F)cccc1F [Compound I-1-598],efficacy in %,spider mites; application rate of 500 g/ha,85%
same,log P,[1],2.61
O=C(Nc1ccn(-c2c(F)cccc2F)n1)c1cccnc1C(F)F [Compound I-1-248],efficacy in %,spider mites; application rate of 500 g/ha,80%
same,log P,[1],1.99
O=C(Nc1ccn(-c2ccccc2C(F)(F)F)n1)c1ccccc1Br [Compound I-1-186],log P,[1],2.96
same,efficacy (kill),Lucilia cuprina larvae,80%
O=C(Nc1ccn(-c2c(F)cccc2F)n1)c1ccccc1[N+](=O)[O-] [Compound I-1-86],log P,[1],2.20
same,efficacy,Myzus persicae; application rate 20 g/ha,90%
"N#Cc1cccnc1-n1ccc(NC(=O)c2ccccc2C(F)(F)F)n1 [Compound I-1-575, N-[1-(3-Cyanopyridin-2-yl)-1H-pyrazol-3-yl]-2-(trifluoromethyl)benzamide]",chromatographic logP,[1]; [2],2.55
same,pest or weed control at 20 ppm,Cooperia curticei,100%
same,pest or weed control at 20 ppm,Meloidogyne incognita,100%
"O=C(Nc1cnn(-c2c(F)cccc2F)n1)c1ccccc1C(F)(F)F [Compound I-2-35, N-[2-(2,6-Difluorophenyl)-2H-1,2,3-triazol-4-yl]-2-(trifluoromethyl)benzamide]",chromatographic logP,[1],2.8
same,pest or weed control at 20 ppm,Cooperia curticei,100%
same,pest or weed control at 500 g/ha,Phaedon cochleariae,100%
same,pest or weed control at 20 ppm,Meloidogyne incognita,100%
O=C(c1ccccc1C(F)(F)F)N(CC1CC1)c1ccn(-c2c(F)cccc2F)n1 [Compound I-1-258],efficacy in %,spider mites; application rate of 500 g/ha,95%
same,log P,[1],3.68
COc1ccccc1C(=O)Nc1ccn(-c2c(F)cccc2F)n1 [Compound I-1-280],log P,[1],2.75
same,efficacy,Myzus persicae; application rate 500 g/ha,90%
"O=C(Nc1ccn(-c2ccccc2Cl)n1)c1ccccc1Cl [Compound I-1-20, 2-Chloro-N-[1-(2-chlorophenyl)-1H-pyrazol-3-yl]benzamide]",chromatographic logP,[1]; [2],2.8
same,efficacy (kill),Lucilia cuprina larvae,90%
same,pest or weed control at 100 ppm,Cooperia curticei; [3],90%
same,pest or weed control at 500 g/ha,Phaedon cochleariae,100%
same,pest or weed control at 20 ppm,Meloidogyne incognita,90%
O=C(Nc1cnn(-c2c(F)cccc2F)n1)c1c(F)cccc1C(F)(F)F [Compound I-2-39],log P,[1],2.88
same,efficacy,Myzus persicae; application rate 500 g/ha,90%
O=C(Nc1cnn(-c2ncccc2Cl)n1)c1ccsc1I [Compound I-2-58],log P,[1],2.44
same,efficacy,Myzus persicae; application rate 500 g/ha,90%
O=C(Nc1ccn(-c2ccccc2Cl)n1)c1cccnc1Cl [Compound I-1-43],efficacy in %,spider mites; application rate of 100 g/ha,90%
same,log P,[1],2.19
O=C(Nc1ccn(-c2ccccc2Cl)n1)c1ncccc1C(F)(F)F [Compound I-1-39],efficacy in %,spider mites; application rate of 500 g/ha,80%
same,log P,[1],2.99
same,efficacy,Boophilus microplus,90%
CC#CCN(C(=O)c1ccccc1C(F)(F)F)c1ccn(-c2c(F)cccc2F)n1 [Compound I-1-263],efficacy in %,spider mites; application rate of 500 g/ha,95%
same,log P,[1],3.40
CS(=O)(=O)c1ccccc1C(=O)Nc1ccn(-c2c(F)cccc2F)n1 [Compound I-1-80],log P,[1],1.95
same,efficacy,Myzus persicae; application rate 500 g/ha,90%
O=C(Nc1ccn(-c2ccccc2Br)n1)c1ccccc1Cl [Compound I-1-51],log P,[1],2.83
same,efficacy (kill),Lucilia cuprina larvae,90%
O=C(Nc1ccn(-c2ccc(F)cn2)n1)c1ccccc1C(F)(F)F [Compound I-1-596],efficacy in %,spider mites; application rate of 500 g/ha,95%
same,log P,[1],2.88
O=C(Nc1cnn(-c2ccccc2Cl)n1)c1ccccc1Cl [Compound I-2-2],log P,[1],2.89
same,efficacy (kill),Lucilia cuprina larvae,80%
